The values below are quoted from earlier work in patent EP0514015A1, “Control of sex differentiation in fish” (MERCK & CO. INC., priority 1991, dated 1992).

The test system of one data set is Oreochromis aureus. Particulars: tilapia, broad range of doses, fed to 3 to 5-day old fry for a period of 22 days.
In another data set the test system is Cyprinus carpio. The following applies: carp, oral administration at 50ppm in feed from weeks 6 through 11 after hatching.

Take `C[C@]12CCC(=O)C=C1CC[C@@H]1[C@@H]2CC[C@@]2(C)[C@H]1CC[C@]2(C)O` [17-alpha-methyltestosterone]: the sex-reversing entry in the data set with Oreochromis aureus was “effective”. Further, the phenotypic males result in the data set with Cyprinus carpio is “greater than 90%”. On to `C#C[C@]1(O)CC[C@H]2[C@@H]3CCC4=CC(=O)CC[C@]4(C)[C@H]3CC[C@@]21C` [17-alpha-ethynyltestosterone], for which, in the data set on Oreochromis aureus, the sex-reversing result is reported as “effective”.
